From patent publication US12533357B2, “Treatment for acute myeloid leukemia or myelodysplastic syndrome” (UNIVERSITY HEALTH NETWORK, priority 2019, dated 2026)

Test system: complex karyotype (CK) AML cell lines
Assay: In vitro combination with standard of care agents
Assay type: cell-based
Conditions: in combination with Venetoclax (Bcl2 inhibitor) and 5-Azacytidine; multiple CK AML cell lines in vitro

For `COc1ccc2c(c1)[C@]1(C[C@H]1c1ccc3c(/C=C/c4ccc(CN5C[C@@H](C)O[C@@H](C)C5)cc4)n[nH]c3c1)C(=O)N2` [Compound (I), (1R,2S)-2-(3-((E)-4-(((2S,6R)-2,6-dimethylmorpholino)methyl)styryl)-1H-indazol-6-yl)-5′-methoxyspiro[cyclopropane-1,3′-indolin]-2′-one], the combination activity was “additive/synergistic activity”.
